Data set [1] has as its target T1, Ectonucleotide pyrophosphatase/phosphodiesterase family member 1 (Homo sapiens, UniProt P22413).
T1 sequence (P22413 whole entry): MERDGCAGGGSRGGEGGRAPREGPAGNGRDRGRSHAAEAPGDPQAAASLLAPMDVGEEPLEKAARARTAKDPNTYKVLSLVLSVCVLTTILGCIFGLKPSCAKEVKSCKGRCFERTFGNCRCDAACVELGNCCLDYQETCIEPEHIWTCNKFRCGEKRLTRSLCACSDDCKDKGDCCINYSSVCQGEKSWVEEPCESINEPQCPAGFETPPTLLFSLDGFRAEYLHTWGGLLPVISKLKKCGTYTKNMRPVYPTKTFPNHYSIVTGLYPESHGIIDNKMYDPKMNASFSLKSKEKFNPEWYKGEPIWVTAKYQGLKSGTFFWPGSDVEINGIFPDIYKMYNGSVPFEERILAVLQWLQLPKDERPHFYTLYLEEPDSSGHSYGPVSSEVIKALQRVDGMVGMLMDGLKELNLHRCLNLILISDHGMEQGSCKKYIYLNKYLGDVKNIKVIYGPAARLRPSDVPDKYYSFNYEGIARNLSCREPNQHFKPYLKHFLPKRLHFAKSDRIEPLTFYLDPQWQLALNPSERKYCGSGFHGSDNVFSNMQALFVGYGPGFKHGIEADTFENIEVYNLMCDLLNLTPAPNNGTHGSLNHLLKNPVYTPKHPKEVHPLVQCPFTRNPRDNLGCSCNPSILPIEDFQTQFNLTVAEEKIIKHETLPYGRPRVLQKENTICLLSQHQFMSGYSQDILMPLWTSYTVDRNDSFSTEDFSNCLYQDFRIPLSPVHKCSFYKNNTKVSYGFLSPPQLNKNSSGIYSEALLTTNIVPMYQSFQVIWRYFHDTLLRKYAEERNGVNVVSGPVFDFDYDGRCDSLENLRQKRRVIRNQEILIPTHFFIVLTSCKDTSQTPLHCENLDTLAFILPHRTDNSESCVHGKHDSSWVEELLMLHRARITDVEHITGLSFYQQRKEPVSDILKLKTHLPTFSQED
The data set is described as follows: Inhibition of ENPP1 (unknown origin).

Data set [2] deals with T1, Ectonucleotide pyrophosphatase/phosphodiesterase family member 1. Put plainly: Binding affinity to ENPP1 (unknown origin) assessed as inhibition constant.
The target is the same in data set [3]. Put plainly: Binding affinity to human ENPP1 assessed as inhibition constant.
Data set [4] can be described thus: Oral bioavailability in mouse. To be noted: in vivo. Format: ADME, organism-based.
For data set [5], the target named is T1, Ectonucleotide pyrophosphatase/phosphodiesterase family member 1. The data set is described as follows: Inhibition of human ENPP1.

The structures appear in SMILES notation.

`Cc1nc2ncnn2c(N(C)C)c1Cc1cccc(N)c1`: the IC50 in data set [1] stood at 260000 nM. Turning to `Nc1ncnc2c1ncn2[C@@H]1O[C@H](COP(=O)(O)CP(=O)(O)OP(O)(O)=S)[C@@H](O)[C@H]1O`, in data set [2], the Ki was found to be 20000 nM. For `O=C(/C=C/c1ccc(O)c(O)c1)O[C@H](Cc1ccc(O)c(O)c1)C(=O)O` [ROSMARINIC ACID], in data set [3], the Ki was 26.9 nM. For the compound `Cn1nc(Cc2ccc(NS(N)(=O)=O)cc2)c2ccccc2c1=O`, the bioavailability in data set [4] came to 65%.

`COc1ccc(NC(=O)CSc2nc3c(C)c(C#N)ncc3[nH]2)cc1O` came in with an IC50 in data set [1] of 2060 nM. In data set [5], `COc1cc2cc(-n3cc(C)c4ccccc43)n3c4ccccc4c(C)c3c2cc1OC` registered an IC50 of 360 nM.

As to `COc1cccc2c(N3CCC(CCP(=O)(O)O)CC3)ncnc12`, in data set [3], the Ki was < 2 nM.

The IC50 is the concentration at which inhibition is half-maximal. As a reminder, the Ki is a measure of affinity in units of concentration, obtained from inhibition or displacement. The bioavailability is the share of a dose that reaches the circulation, judged against a reference dose that is usually intravenous. High values mean much systemic uptake, low ones little systemic uptake.
